Reference: patent US5843950A, “1,4-dihydropyridine compound and pharmaceutical composition containing the same” (Nikken Chemicals Co., Ltd., priority 1994, dated 1998)
pIC50: −log10 of the molar value. Read-outs that look alike come from different tables or passages of the source.

How the values were obtained:
[1] = system: KCl contraction in rat arteries (thoracic aorta); assay: Action easing KCl contraction in rat arteries (thoracic aorta ring); details: read-out: IC50 value (50% inhibitory concentration of hypercalcemic contraction), Test Example 8, Table 8
Acute toxicity test = details: mouse, in vivo, ip; mice, intraperitoneal, 7 days observation
Description: Animals used: ICR male mice (Charles River Japan) 7-8 weeks old, three mice per group.
Test method: The compound of the present invention was suspended in 0.5% sodium carboxymethylcellulose (CMC-Na) containing 0.1% Tween 80. It was administered to the mice intraperitoneally from 2000 mg/kg to 125 mg/kg by a ratio of 1/2 and from 125 mg/kg to 31.3 mg/kg by a ratio of 1/√2 in groups of three mice until no more deaths were observed. The survival of the animals was observed up until 7 days after administration and the LD50 was calculated by the Van Der Wearder area method.

[2] = system: VCR resistant murine leukemia (P388/VCR) cells; assay: In vivo effect for overcoming resistance to vincristine in VCR resistant murine leukemia (P388/VCR) bearing mice; design: species or system CDF1 male mice
Description: In vivo test of action suppressing proliferation of cancer cells by concomitant use with anti-cancer drug
The number of survival days were found and the life prolonging rate (T/C) with respect to the controls was found. The effect in overcoming resistance to an anti-cancer drug (T/V) was found by the following formula.
Effect for overcoming resistance to an anti-cancer drug (T/V) %
=[Life prolonging rate (T/C) in case of concomitant use of VCR and the compound of the present invention]/[Life prolonging rate (T/C) in case of VCR alone]×100
Using Compound 18 to Compound 22 and Compound 32, the same procedure was followed as in Test Example 5 to find the effect for overcoming resistance to an anti-cancer drug in vincristine (VCR) resistant murine leukemia cell bearing mice.

TxA2 synthesis = TxA2 synthesis inhibiting action test (human blood platelet microsomes); format: biochemical; details: prostaglandin H2
Description: TxA2 Synthesis Inhibiting Action Test
One ml of a buffer (20 mM Tris-HCl buffer, 1 mM EDTA, pH 7.5) containing human blood platelet microsomes (50 μg protein/ml) and the test compound (final concentration 10^-7 M) was agitated, then incubated at 0° C. for 30 minutes. To this was added prostaglandin H2 (100 ng/2 μl). This was incubated at 23° C. for 3 minutes to cause a reaction. Next, 1M hydrochloric acid was added to make the solution acidic and stop the reaction, then this was neutralized by 1M Tris-Base and centrifuged at 3000 rpm for 20 minutes. The amount of the TxB2 in the supernatant was measured by the EIA method (Cayman Co. kit).

[3] = system: KCl contraction in rat arteries (thoracic aorta); assay: Action easing KCl contraction in rat arteries (thoracic aorta ring); details: read-out: IC50 value (50% inhibitory concentration of hyperpotassium contraction), Test Example 7, Table 7, 37° C.
Description: Action easing KCl contraction in rat arteries
The specimen was stabilized for approximately 60 minutes, then a potassium chloride solution was added to the Magnus tube to give a final concentration of […]. The positive control compound or the compound of the present invention was cumulatively added from 1×10^-10 M to 1×10^-4 M when the contraction reaction occurring at that time reached equilibrium. The contraction force was recorded by an FD-pickup (made by Nihon Kodensha) via a polygraph (made by Nihon Kodensha).

KB cells [4] = assay: In vitro suppression of proliferation of KB cancer cells by concomitant use with vincristine; format: cell-based, Human; details: test compound 1 μg/ml with VCR, VCR alone in KB = 1
Description: (§1) As the incubation solutions, use was made of 10% fetal calf serum (made by Flow Laboratories) and Eagle MEM medium (made by Nissui Seiyakusha) containing 0.292 mg/ml of L-glutamine (made by Flow Laboratories). The tests of the action in overcoming resistance to anti-cancer drugs or action reinforcing the effect of the anti-cancer drug through concomitant use of the anti-cancer drug doxorubicin (adriamycin, ADM) and the test compound were performed as follows: The test cells were suspended in incubation solutions and adjusted to a cell density of about 200 cells/ml. The cell suspensions were injected in 2 ml amounts into petri dishes and were incubated in a CO2 gas incubator (5% CO2, 95% air) at 37° C. for 24 hours. Next, 5 to 10 μl of a predetermined concentration of the aqueous ADM solution and a predetermined concentration of a DMSO solution of the test compound were added, then the incubation was continued for a further 7 days. After the end of the incubation, the result was immobilized by methanol, Giemsa stained and measured for the number of colonies per dish. The results were used to prepare a volume-reaction curve.
In vitro test of action suppressing proliferation of cancer cells by concomitant use with vincristine […]

VJ-300 cells [5] = assay: In vitro suppression of proliferation of multi-drug resistant VJ-300 cells by concomitant use with vincristine; format: cell-based, Human; details: test compound 1 μg/ml with VCR, VCR alone in KB = 1
multi-drug resistance = details: Cancer Res., 41, 1967-1972 (1981); Cancer and Chemotherapy, vol. 11, pp. 750-759 (1984); cited from earlier work
KB cells [6] = assay: In vitro suppression of proliferation of KB cancer cells by concomitant use with doxorubicin; format: cell-based, Human; details: test compound 1 μg/ml with ADM, ADM alone in KB = 1
Description: (§2) In vitro test of action suppressing proliferation of cancer cells by concomitant use with doxorubicin
as §1

VJ-300 cells [7] = assay: In vitro suppression of proliferation of multi-drug resistant VJ-300 cells by concomitant use with doxorubicin; format: cell-based, Human; details: test compound 1 μg/ml with ADM, ADM alone in KB = 1
Description: as §2, §1

[8] = Test Example 6, Table 6, same procedure as Test Example 5
[9] = Test Example 5, Table 5, T/C with VCR + compound over T/C with VCR alone ×100
[10] = Test Example 5, Table 5, VCR 100 μg/kg i.p. 5 days with compound 100 mg/kg (verapamil 60, nicardipine 75 mg/kg)

SMILES	pIC50 [1]	LD50 at 168 h (Acute toxicity test)	TxA2 synthesis inhibiting action Rate of suppression at 10^-7 mol (%) (TxA2 synthesis)	pIC50 [3]	Effect for overcoming resistance T/V (%) [2, 9]	Life prolonging rate T/C (%) [2, 10]	Mean days of survival [2, 10]	further results
CCCCCC1C(C(=O)OCCCc2cccnc2)=C(C)NC(C)=C1C(=O)OCCCc1cccnc1 [Compound 18, 2,6-dimethyl-4-n-pentyl-1,4-dihydropyridine-3,5-dicarboxylic acid bis[3-(3-pyridyl)propyl]ester]	5.34	> 2000 mg/kg	–	–	–	–	–	Effect for overcoming resistance T/V (%) [2, 8]: 140%; Life prolonging rate T/C (%) [2, 8]: 143%; Mean days of survival [2, 8]: 15.3 days
CCCCCCCCC1C(C(=O)OCCCc2cccnc2)=C(C)NC(C)=C1C(=O)OCCCc1cccnc1 [Compound 16, 2,6-dimethyl-4-n-octyl-1,4-dihydropyridine-3,5-dicarboxylic acid bis[3-(3-pyridyl)propyl]ester]	4.21	> 2000 mg/kg	–	–	–	–	–	–
CC1=C(C(=O)OCCCc2cccnc2)C(C(C)C)C(C(=O)OCCCc2cccnc2)=C(C)N1 [Compound 1, 2,6-dimethyl-4-isopropyl-1,4-dihydropyridine-3,5-dicarboxylic acid bis[3-(3-pyridyl)propyl]ester]	–	750 mg/kg	90.7%	< 4.52	–	–	–	–
CC[C@]1(O)C[C@H]2CN(CCc3c([nH]c4ccccc34)[C@@](C(=O)OC)(c3cc4c(cc3OC)N(C=O)[C@H]3[C@@](O)(C(=O)OC)[C@H](OC(C)=O)[C@]5(CC)C=CCN6CC[C@]43[C@@H]65)C2)C1 [VCR, vincristine, reference compound]	–	–	–	–	100%	107%	10.7 days	Resistance with VCR, KB (LD50 concentration of VCR relative to VCR alone in KB cells) (KB cells [4]): 1; Effect for overcoming resistance T/V (%) [2, 8]: 100%; Life prolonging rate T/C (%) [2, 8]: 102%; Mean days of survival [2, 8]: 10.9 days; Resistance with VCR, VJ-300 (LD50 concentration of VCR relative to VCR alone in KB cells) (VJ-300 cells [5]): 603.4
COC(=O)C1=C(C)NC(C)=C(C(=O)OCCN(C)Cc2ccccc2)C1c1cccc([N+](=O)[O-])c1 (stereo not shown) [Nicardipine, nicardipine, reference compound]	6.82	–	–	6.28	123%	132%	13.2 days	overcoming multi-drug resistance by concomitant administration with an anti-cancer drug (multi-drug resistance): effective
CC1=C(C(=O)OCCCc2cccnc2)C(Cc2ccccc2)C(C(=O)OCCCc2cccnc2)=C(C)N1 [Compound 5, 2,6-dimethyl-4-benzyl-1,4-dihydropyridine-3,5-dicarboxylic acid bis[3-(3-pyridyl)propyl]ester]	4.38	1120 mg/kg	–	–	–	–	–	–
CCCC(C)C1C(C(=O)OCCCc2cccnc2)=C(C)NC(C)=C1C(=O)OCCCc1cccnc1 (stereo not shown) [Compound 3, 2,6-dimethyl-4-(1-methylbutyl)-1,4-dihydropyridine-3,5-dicarboxylic acid bis[3-(3-pyridyl)propyl]ester]	–	188 mg/kg	82.4%	–	161%	172%	17.2 days	–
CC1=C(C(=O)OCCCc2cccnc2)C(C(C)C)C(C(=O)OCc2ccncc2)=C(C)N1 (stereo not shown) [Compound 15, 2,6-dimethyl-4-isopropyl-1,4-dihydropyridine-3,5-dicarboxylic acid 3-(4-pyridylmethyl) ester, 5-[3-(3-pyridyl)propyl]ester]	5.38	–	83.5%	–	134%	144%	14.4 days	–
COc1cccc2c1C(=O)c1c(O)c3c(c(O)c1C2=O)C[C@@](O)(C(=O)CO)C[C@@H]3O[C@H]1C[C@H](N)[C@H](O)[C@H](C)O1 [ADM, doxorubicin]	–	–	–	–	–	–	–	Resistance with ADM, KB (LD50 concentration of ADM relative to ADM alone in KB cells) (KB cells [6]): 1; Resistance with ADM, VJ-300 (LD50 concentration of ADM relative to ADM alone in KB cells) (VJ-300 cells [7]): 26.4
CC1=C(C(=O)OCCCc2cccnc2)C(C(c2ccccc2)c2ccccc2)C(C(=O)OCCCc2cccnc2)=C(C)N1 [Compound 6, 2,6-dimethyl-4-benzhydryl-1,4-dihydropyridine-3,5-dicarboxylic acid bis[3-(3-pyridyl)propyl]ester]	–	2000 mg/kg	–	4.59	–	–	–	–
